Experimental data from paper PMC9082340 (ACS applied materials & interfaces, 2020).
Ends that are not written are not given here.

Tests used:
[1] = previous literature reports; cited from earlier work
HEK-293 T cells = type: cell-based; settings: pyrene butyrate treatment
[2] = system: HEK-293 T cells expressing PH-LgBiT; assay: NanoLuc; type: cell-based; settings: PyB 25–200 μM in PBS 5 min before 1 μM YARA-HiBiT or R6-HiBiT (Figure S29)
[3] = system: A7r5 rat aortic vascular smooth muscle cells; assay: Cell viability; type: cell-based; settings: 10 μM peptide, A7r5 cells (Figure S19-G)

Row | Compound | Activity enhancement reported for pyrene butyrate [1] | Cell viability at 100 μM (29 μg/mL) (HEK-293 T cells) [%] | Cell viability at 200 μM (58 μg/mL) (HEK-293 T cells) [%] | Increase in activity over peptide alone with pyrene butyrate [2] [fold] | Toxicity of peptide dose [3]
1 | O=C(O)CCCc1ccc2ccc3cccc4ccc1c2c34 [pyrene butyrate, 1-pyrenebutyric acid] | 1.5–5 fold | 65 | 57 | ≤ 1.3 | –
2 | YARAAARQARAKALARQLGVAA [YARA-MK2i] | – | – | – | – | nontoxic
